Source: patent US7803801B2, “Aminopyridine compounds having Syk inhibitory activity” (Japan Tobacco, Inc., priority 2005, dated 2010)
Read-outs that look alike come from different tables or passages of the source.

What was measured:
[1] = tested on: cultured human mast cells; assay: Degranulation inhibition test using cultured human mast cells (IgE cross-linking, β-Hexosaminidase release); assay type: cell-based; settings: Mast cell, cultured human mast cells, read-out: human degranulation ave. IC50
Summary of the method: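 CD34+ cord-blood cells cultured ≥8 weeks with SCF/IL-6/IL-3; FcεRI primed 5 days with rhIL-4 (1 ng/mL) and hIgE (0.5 μg/mL). Compound (0.1% DMSO) preincubated 10 min at 37 °C, then anti-IgE (final 10 μg/mL) 30 min; released β-hexosaminidase read at 405 nm versus total lysate, IC50 (M).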

[2] = molecular target: GST-Syk Full Protein (human) (Homo sapiens, UniProt P43405); assay: Syk kinase inhibition test (HTRF method); assay type: biochemical
Summary of the method: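 Human GST-Syk full-length (6.4 nM) phosphorylated biotin-EDPDYEWPSA-NH2 (250 nM) with 100 μM ATP in HEPES pH 7.0/MgCl2 buffer, 2% DMSO, 30 min at room temperature. EDTA stop, then HTRF detection (streptavidin-XL665, Eu anti-phosphotyrosine) after 1 h; 665/620 ratio read.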

[3] = Tables 1-x, compounds A, read-out: sykHTRF ave IC50
[4] = anti-hIgE stimulation, β-Hexosaminidase index, average
[5] = HTRF, 100 μM ATP, 30 min room temperature, average, read-out: sykHTRF ave IC50
[6] = Tables 2-x, thiophene compounds B
[7] = Tables 2-x, thiophene compounds B, read-out: sykHTRK ave IC50

IC50 ([1]; Tables 1-x, compounds A) [nM] | IC50 [2, 3] [nM] | IC50 [1, 4] [nM] | IC50 [2, 5] [nM] | SMILES | other results
 |  | 100 to 1000 | 100 to 1000 | COC(=O)N(C)Cc1ncc(-c2cccc(Nc3cc(C)ccn3)n2)s1 [Compound A-356] | 
100 to 1000 | < 100 |  |  | COCCN(C)c1ncc(-c2cccc(Nc3cc(C)ccn3)n2)s1 [Compound A-520, N-(2-methoxyethyl)-N-methyl-N-{5-[6-(4-methylpyridin-2-ylamino)pyridin-2-yl]thiazol-2-yl}amine] | 
 |  | 100 to 1000 | 100 to 1000 | Cc1ccnc(Nc2cccc(-c3cnc([C@H]4CC[C@H](C(=O)NC(C)(C)CO)CC4)s3)n2)c1 [Compound A-175] | 
 |  | > 1000 | < 100 | Cc1ccnc(Nc2cccc(-c3cnc(CCCCC(=O)O)s3)n2)c1 [Compound A-69, 5-{5-[6-(4-methylpyridin-2-ylamino)pyridin-2-yl]thiazol-2-yl}pentanoic acid] | 
100 to 1000 | < 100 |  |  | CNC(=O)CC1CCN(c2ncc(-c3cccc(Nc4cc(C)ccn4)n3)s2)CC1 [Compound A-505, N-methyl-2-(1-{5-[6-(4-methylpyridin-2-ylamino)pyridin-2-yl]thiazol-2-yl}piperidin-4-yl)acetamide] | 
100 to 1000 | < 100 |  |  | CC(=O)c1ccnc(Nc2cccc(-c3cnc(N4CCC(C(N)=O)CC4)s3)n2)c1 [Compound A-543, 1-{5-[6-(4-acetylpyridin-2-ylamino)pyridin-2-yl]thiazol-2-yl}piperidine-4-carboxamide] | 
 |  | 100 to 1000 | 100 to 1000 | O=C1CC[C@@H](c2ncc(-c3cccc(Nc4cc(OCCO)ccn4)n3)s2)N1 [Compound A-343] | 
 |  | 100 to 1000 | 100 to 1000 | CC(=O)N[C@@H](Cc1ccc(O)cc1)c1ncc(-c2cccc(Nc3cc(C)ccn3)n2)s1 [Compound A-99] | 

The next lines start with the compound.

SMILES | IC50 ([1]; Tables 1-x, compounds A) [nM] | IC50 [2, 3] [nM] | IC50 [1, 4] [nM] | IC50 [2, 5] [nM] | other results
CNC(=O)CO[C@@H]1CCN(c2ncc(-c3cccc(Nc4cc(C)ccn4)n3)s2)C1 [Compound A-516, N-methyl-2-((R)-1-{5-[6-(4-methylpyridin-2-ylamino)pyridin-2-yl]thiazol-2-yl}pyrrolidin-3-yloxy)acetamide] | 100 to 1000 | < 100 |  |  | 
Cc1ccnc(Nc2cccc(-c3cnc([C@H]4CC[C@H](C(=O)N5CCCC(O)C5)CC4)s3)n2)c1 (stereo partly drawn) [Compound A-238] |  |  | 100 to 1000 | 100 to 1000 | 
CC(=O)c1sc(-c2cccc(Nc3cc(C)ccn3)n2)cc1C [Compound B-40] |  |  |  |  | IC50 [1, 6]: > 1000 nM; IC50 [2, 7]: 100 to 1000 nM
Cc1ccnc(Nc2cccc(-c3ccc(-c4cc(C)no4)s3)n2)c1 [Compound B-66] |  |  |  |  | IC50 [1, 6]: > 1000 nM; IC50 [2, 7]: 100 to 1000 nM
CC(=O)NCCN(C)c1ncc(-c2cccc(Nc3cc(C)ccn3)n2)s1 [Compound A-508, N-[2-(N′-methyl-N′-{5-[6-(4-methylpyridin-2-ylamino)pyridin-2-yl]thiazol-2-yl}amino)ethyl]acetamide] | 100 to 1000 | < 100 |  |  | 
Cc1ccnc(Nc2cccc(-c3cnc(N4CCC(N(C)C(=O)CO)CC4)s3)n2)c1 [Compound A-483, 2-hydroxy-N-methyl-N-(1-{5-[6-(4-methylpyridin-2-ylamino)pyridin-2-yl]thiazol-2-yl}piperidin-4-yl)acetamide] | 100 to 1000 | < 100 |  |  | 
Cc1ccnc(Nc2cccc(-c3ccc(C(C)O)s3)n2)c1 (stereo not drawn) [Compound B-3, 1-{5-[6-(4-methylpyridin-2-ylamino)pyridin-2-yl]thiophen-2-yl}ethanol] |  |  |  |  | IC50 [1, 6]: 100 to 1000 nM; IC50 [2, 7]: 100 to 1000 nM
Cc1ccnc(Nc2cccc(-c3cnc([C@@H]4COC(C)(C)N4C(=O)OC(C)(C)C)s3)n2)c1 [Compound A-12, (S)-2,2-dimethyl-4-{5-[6-(4-methylpyridin-2-ylamino)pyridin-2-yl]thiazol-2-yl}oxazolidine-3-carboxylic acid tert-butyl ester] |  |  | > 1000 | > 1000 | 
Cc1ccnc(Nc2cccc(-c3cnc([C@@H](O)CCC(=O)O)s3)n2)c1 [Compound A-107] |  |  | > 1000 | 100 to 1000 | 
Cc1ccnc(Nc2cccc(-c3ccc(C)s3)n2)c1 [Compound B-13] |  |  |  |  | IC50 [1, 6]: > 1000 nM; IC50 [2, 7]: 100 to 1000 nM
